Results taken from patent US12421254B2, “KRAS modulators and uses thereof” (Quanta Therapeutics, Inc., priority 2023, dated 2025).

Legend:
[1] = molecular target: GST-tagged KRAS-G12V (2-169) (Homo sapiens, UniProt P01116, G12V); assay: Nucleotide exchange assay (NEA), SOS-mediated, HTRF, KRAS G12V; assay type: biochemical; details: Table 4; IC50 extracted at 90 min; 80 nM SOS
Summary of the method: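 Exchange onto fluorescent GTP-DY-647P1 (150 nM final) catalysed by 80 nM SOS1cat was followed by Tb-anti-GST HTRF at RT for up to 90 min, after 1 h compound pre-incubation with 0.25 nM GST-tagged KRAS-G12V (2-169), pH 7.3. DMSO = 0%, no-SOS blank = 100%; 4-parameter IC50 taken at 90 min.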

[2] = molecular target: GST-tagged KRAS-G12D (2-169) (Homo sapiens, UniProt P01116, G12D); assay: Nucleotide exchange assay (NEA), SOS-mediated, HTRF, KRAS G12D; assay type: biochemical; details: Table 4; IC50 extracted at 30 min; 20 nM SOScat; read-out: NEA G12D IC50
Sequence of GST-tagged KRAS-G12D (2-169) (P01116 2-169 isoform P01116-2 G12D): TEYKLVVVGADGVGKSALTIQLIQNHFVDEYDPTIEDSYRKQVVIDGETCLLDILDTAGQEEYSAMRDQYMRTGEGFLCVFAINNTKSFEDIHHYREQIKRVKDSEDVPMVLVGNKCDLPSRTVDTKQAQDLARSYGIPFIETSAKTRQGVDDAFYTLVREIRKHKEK
Summary of the method: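 SOS1cat-driven loading of fluorescent GTP-DY-647P1 (150 nM) onto GST-KRAS-G12D (2-169, 0.25 nM) read by time-resolved FRET; SOScat 20 nM, compound preincubated with KRAS 1 h at RT. Signal blanked to no-SOS reactions, normalized to DMSO; IC50 fitted from the 30-min read.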

Sequence of GST-tagged KRAS-G12V (2-169) (P01116 2-169 isoform P01116-2 G12V): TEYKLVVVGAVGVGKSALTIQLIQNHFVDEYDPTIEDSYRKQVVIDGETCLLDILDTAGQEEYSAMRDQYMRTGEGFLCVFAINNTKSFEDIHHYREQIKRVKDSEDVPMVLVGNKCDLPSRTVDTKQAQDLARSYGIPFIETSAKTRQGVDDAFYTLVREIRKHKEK

Compound	IC50 [1] [nM]	IC50 [2] [nM]
N#Cc1c(N)sc2c1C1(CC2)CN(c2nc(OC[C@@]34CCCN3C[C@H](F)C4)nc(N3CCC[C@H](C#N)[C@@H]3CO)n2)C1 (racemic) [Compound 63, 2-amino-1′-[4-[rac-(2R,3S)-3-cyano-2-(hydroxymethyl)-1-piperidyl]-6-[[(2R,8S)-2-fluoro-1,2,3,5,6,7-hexahydropyrrolizin-8-yl]methoxy]-1,3,5-triazin-2-yl]spiro[3a,5-dihydrocyclopenta[b]thiophene-4,3′-azetidine]-3-carbonitrile]	100 to 1000	100 to 1000
N#Cc1c(N)sc2c1C1(CN(c3nc(OC[C@@]45CCCN4C[C@H](F)C5)nc(N4C5CNCC4CC(=O)C5)n3)C1)SC2 [Compound 276, 2-amino-1′-[4-[[(2R,8S)-2-fluoro-1,2,3,5,6,7-hexahydropyrrolizin-8-yl]methoxy]-6-(7-oxo-3,9-diazabicyclo[3.3.1]nonan-9-yl)-1,3,5-triazin-2-yl]spiro[6H-thieno[3,4-b]thiophene-4,3′-azetidine]-3-carbonitrile]	10 to 100	100 to 1000
CC1(O)COCCN(c2nc(OCC3(CN4CCOCC4)CC3)nc(N3CC4(C3)SCc3sc(N)c(C#N)c34)n2)C1 (centres unmarked) [Compound 270, 2-amino-1′-[4-(6-hydroxy-6-methyl-1,4-oxazepan-4-yl)-6-[[1-(morpholinomethyl)cyclopropyl]methoxy]-1,3,5-triazin-2-yl]spiro[6H-thieno[3,4-b]thiophene-4,3′-azetidine]-3-carbonitrile]	< 10	< 10
N#Cc1c(N)sc2c1C1(CC2)CN(c2nc(OC[C@@]34CCCN3C[C@H](F)C4)nc(N3CCSc4ncccc4C3)n2)C1 [Compound 99, 2-amino-1′-[4-(3,5-dihydro-2H-pyrido[3,2-f][1,4]thiazepin-4-yl)-6-[[(2R,8S)-2-fluoro-1,2,3,5,6,7-hexahydropyrrolizin-8-yl]methoxy]-1,3,5-triazin-2-yl]spiro[5,6-dihydrocyclopenta[b]thiophene-4,3′-azetidine]-3-carbonitrile]	100 to 1000	1000 to 20000
N#Cc1c(N)sc2c1C1(CN(c3nc(OC[C@@]45CCCN4C[C@H](F)C5)nc(N(CC(=O)O)Cc4cccnc4N)n3)C1)SC2 [Compound 187, 2-[[4-(2-amino-3-cyano-spiro[6H-thieno[3,4-b]thiophene-4,3′-azetidine]-1′-yl)-6-[[(2R,8S)-2-fluoro-1,2,3,5,6,7-hexahydropyrrolizin-8-yl]methoxy]-1,3,5-triazin-2-yl]-[(2-amino-3-pyridyl)methyl]amino]acetic acid]	< 10	10 to 100
N#Cc1c(N)sc2c1C1(CC2)CN(c2nc(OC[C@@]34CCCN3C[C@H](F)C4)nc(N(CCO)Cc3cc[nH]n3)n2)C1 [Compound 131, 2-amino-1′-[4-[[(2R,8S)-2-fluoro-1,2,3,5,6,7-hexahydropyrrolizin-8-yl]methoxy]-6-[2-hydroxyethyl(1H-pyrazol-5-ylmethyl)amino]-1,3,5-triazin-2-yl]spiro[5,6-dihydrocyclopenta[b]thiophene-4,3′-azetidine]-3-carbonitrile]	10 to 100	100 to 1000
CN(c1nc(OCC2(CN3CCOCC3)CC2)nc(N2CC3(CCc4sc(N)c(C#N)c43)C2)n1)[C@@H]1COC[C@@H]1O (racemic) [Compound 94, 2-amino-1′-[4-[[rac-(3R,4R)-4-hydroxytetrahydrofuran-3-yl]-methyl-amino]-6-[[1-(morpholinomethyl)cyclopropyl]methoxy]-1,3,5-triazin-2-yl]spiro[5,6-dihydrocyclopenta[b]thiophene-4,3′-azetidine]-3-carbonitrile]	100 to 1000	1000 to 20000
